Measurements as given in PubChem BioAssay AID2060492 (Molecular Pharmacology Branch, DTP, NCI, 2025).

System: 695427-040-R-J1-PDC complex spheroids, viability percent T/C
Test: Anticancer human tumor 695427-040-R-J1-PDC patient-derived colon adenocarcinoma cell line growth inhibition [GQUAD]
Settings: for IC50: curve of first compound; for viability, T/C: stronger effect = lower value
Description: DNA G-quadruplex Stabilizer Agents in Combinations in Complex Spheroids
A high-throughput screen of multi-cell type tumor spheroids was designed to identify active combinations of DNA G-quadruplex stabilizer agents and targeted small molecules. Complex spheroids include a stromal component modeled by human endothelial cells (HUVEC) and fibroblasts modeled by human mesenchymal stem cells (MSCs). The concentration ranges selected for each drug and investigational agent were based upon clinically achievable concentrations if the clinical Cmax of the agent was known.
Compounds. The drugs and investigational agents: pidnarulex (CX-5461; NSC782164), APTO-253 (NSC789042), BRACO-19 (NSC847499), peposertib (NSC802822), ceralasertib (NSC780249), elimusertib (NSC800525), camonsertib (NSC841442), AZD-1390 (NSC803789), olaparib (NSC753686), talazoparib (NSC767125), ART-558 (NSC835418), sotorasib (NSC818433), MRTX-1133 (NSC836407), SN-38 (NSC673596), topotecan (NSC609699), etoposide (NSC141540), doxorubicin (NSC123127), gemcitabine (NSC613327), 5-fluorouracil (NSC19893), paclitaxel (NSC125973), vemurafenib (NSC761431), panobinostat (NSC761190), R-306465 (JNJ-16241199; NSC773264), adavosertib (NSC754352), TP-3654 (NSC805149), carboplatin (NSC241240), KSQ-4279 (NSC840948), and staurosporine (NSC755774) were obtained from the National Cancer Institute (NCI) Developmental Therapeutics Program Chemical Repository (34). The FDA-approved anticancer drug set is available from the NCI Developmental Therapeutics Program. […] The stock solutions were prepared in dimethyl sulfoxide (DMSO, Sigma-Aldrich, St. Louis, MO, cat. D2650) at 800-fold the tested concentration and stored at -70 degrees C prior to their use. All drugs and investigational agents were tested over a range starting from a high concentration at or near the clinical Cmax and decreasing in half-log increments. If the clinical Cmax for an agent had not been determined, the highest concentration tested was 10 microM.
2.3 Cell Culture. All cells were maintained in an incubator at 37 degrees C and 5% CO2 with 95% humidity. The PDC lines were cultured according to standard operating procedures established by the NCI PDMR. All PDCs were thawed and cultured in Matrigel-coated flasks prepared with a working solution of 1X Ham's F-12 nutrient mix, without supplementation (Invitrogen, cat. 11765054), 100 U/mL penicillin-streptomycin (Invitrogen, cat. 15140122), and 2.5% Matrigel (Corning Inc., cat. 354248) for the first three passages. The 857933-349-R-J2-PDC line was cultured in 6C/Colon 1B media, which includes advanced DMEM/F-12 (Thermo Fisher Scientific, cat. 12634028), 10 mM HEPES (Thermo Fisher Scientific, cat. 15630080), 1X GlutaMAX supplement (Thermo Fisher Scientific, cat. 35050061), 0.1 mg/mL primocin (InvivoGen, cat. ant-pm-2), 10% defined fetal bovine serum, heat inactivated (HyClone Laboratories Inc., cat. SH30070.03HI), 50% L-WRN conditioned media (ATCC, cat. CRL-3276), 1.25 mM N-Acetyl-L-cysteine (Sigma-Aldrich, cat. A9165), 10 mM nicotinamide (Sigma-Aldrich, cat. N0636), 1X B-27 supplement (Thermo Fisher Scientific, cat. 17504044), 1X N-2 supplement (Thermo Fisher Scientific, cat. 17502048), 10 microM Y-27632 dihydrochloride (Tocris Bioscience, cat. 1254), and 50 ng/mL human EGF recombinant protein (Thermo Fisher Scientific, cat. PHG0311). The 485176-168-R4-J1-PDC line was cultured in Panc media, which includes all 6C/Colon 1B media components plus 100 ng/mL human FGF-10 (Thermo Fisher Scientific, cat. 100-26), 500 nM SB-431542 (Selleckchem, cat. S1067), and gastrin (Tocris, cat. 3006).
[…]

[1] = second compound 0.0316 µM, first compound 0.0316 µM
[2] = second compound 0.0316 µM, first compound 0.316 µM
[3] = second compound 0.1 µM, first compound 0.0316 µM
[4] = second compound 0.1 µM, first compound 0.316 µM
[5] = second compound 0.316 µM, first compound 0.0316 µM
[6] = second compound 0.316 µM, first compound 0.316 µM
[7] = second compound 1 µM, first compound 0.0316 µM
[8] = second compound 1 µM, first compound 0.316 µM
[9] = second compound 3.16 µM, first compound 0.0316 µM
[10] = second compound 3.16 µM, first compound 0.316 µM
[11] = second compound 10 µM, first compound 0.0316 µM
[12] = second compound 10 µM, first compound 0.316 µM
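Note: spheroids exposed to compounds for seven days before readout.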

`C=CC(=O)N1CCN(c2nc(=O)n(-c3c(C)ccnc3C(C)C)c3nc(-c4c(O)cccc4F)c(F)cc23)C(C)C1` (centres undefined) + CN(C)c1ccc(Nc2c3ccc(NC(=O)CCN4CCCC4)cc3nc3cc(NC(=O)CCN4CCCC4)ccc23)cc1 showed an IC50 (second compound 0.0316 µM) greater than 10 µM, an IC50 (second compound 0.1 µM) greater than 10 µM and an IC50 (second compound 0.316 µM) greater than 10 µM. The IC50 (second compound 1 µM) was greater than 10 µM, the IC50 (second compound 3.16 µM) was greater than 10 µM and the IC50 (second compound 10 µM) was greater than 10 µM. The viability, T/C [1] was 107%, the viability, T/C (second compound 0.0316 µM, first compound 0.1 µM) was 109% and the viability, T/C [2] was 102%. For the same compound, the viability, T/C (second compound 0.0316 µM, first compound 1 µM) was 104%, the viability, T/C (second compound 0.0316 µM, first compound 3.16 µM) was 106% and the viability, T/C (second compound 0.0316 µM, first compound 10 µM) was 112%. For the same compound, the viability, T/C [3] was 104%, the viability, T/C (second compound 0.1 µM, first compound 0.1 µM) was 95% and the viability, T/C [4] was 104%. The viability, T/C (second compound 0.1 µM, first compound 1 µM) was 94.6%, the viability, T/C (second compound 0.1 µM, first compound 3.16 µM) was 103% and the viability, T/C (second compound 0.1 µM, first compound 10 µM) was 110%. The viability, T/C [5] was 113%, the viability, T/C (second compound 0.316 µM, first compound 0.1 µM) was 113% and the viability, T/C [6] was 107%. It also gave a viability, T/C (second compound 0.316 µM, first compound 1 µM) of 102%, a viability, T/C (second compound 0.316 µM, first compound 3.16 µM) of 106% and a viability, T/C (second compound 0.316 µM, first compound 10 µM) of 108%. The viability, T/C [7] was 97.9%, the viability, T/C (second compound 1 µM, first compound 0.1 µM) was 106% and the viability, T/C [8] was 99.7%. It also gave a viability, T/C (second compound 1 µM, first compound 1 µM) of 107%, a viability, T/C (second compound 1 µM, first compound 3.16 µM) of 108% and a viability, T/C (second compound 1 µM, first compound 10 µM) of 107%. The viability, T/C [9] was 107%, the viability, T/C (second compound 3.16 µM, first compound 0.1 µM) was 90.9% and the viability, T/C [10] was 100%. It also gave a viability, T/C (second compound 3.16 µM, first compound 1 µM) of 98.5%, a viability, T/C (second compound 3.16 µM, first compound 3.16 µM) of 101% and a viability, T/C (second compound 3.16 µM, first compound 10 µM) of 100%. The viability, T/C [11] was 99.2%, the viability, T/C (second compound 10 µM, first compound 0.1 µM) was 89.7% and the viability, T/C [12] was 89.7%. It also gave a viability, T/C (second compound 10 µM, first compound 1 µM) of 92%, a viability, T/C (second compound 10 µM, first compound 3.16 µM) of 99.1% and a viability, T/C (second compound 10 µM, first compound 10 µM) of 90.6%.

`CC[C@@]1(O)C(=O)OCc2c1cc1n(c2=O)Cc2cc3c(CN(C)C)c(O)ccc3nc2-1` + CN(C)c1ccc(Nc2c3ccc(NC(=O)CCN4CCCC4)cc3nc3cc(NC(=O)CCN4CCCC4)ccc23)cc1 showed an IC50 (second compound 0.0316 µM) greater than 0.316 µM, an IC50 (second compound 0.1 µM) greater than 0.316 µM and an IC50 (second compound 0.316 µM) greater than 0.316 µM. The IC50 (second compound 1 µM) was greater than 0.316 µM, the IC50 (second compound 3.16 µM) was greater than 0.316 µM and the IC50 (second compound 10 µM) was greater than 0.316 µM. For the same compound, the viability, T/C (second compound 0.0316 µM, first compound 0.000999 µM) was 109%, the viability, T/C (second compound 0.0316 µM, first compound 0.00316 µM) was 95% and the viability, T/C (second compound 0.0316 µM, first compound 0.00999 µM) was 108%. For the same compound, the viability, T/C [1] was 100%, the viability, T/C (second compound 0.0316 µM, first compound 0.0999 µM) was 104% and the viability, T/C [2] was 91.6%. The viability, T/C (second compound 0.1 µM, first compound 0.000999 µM) was 117%, the viability, T/C (second compound 0.1 µM, first compound 0.00316 µM) was 101% and the viability, T/C (second compound 0.1 µM, first compound 0.00999 µM) was 96.8%. The viability, T/C [3] was 101%, the viability, T/C (second compound 0.1 µM, first compound 0.0999 µM) was 98.9% and the viability, T/C [4] was 85%. For the same compound, the viability, T/C (second compound 0.316 µM, first compound 0.000999 µM) was 97.6%, the viability, T/C (second compound 0.316 µM, first compound 0.00316 µM) was 104% and the viability, T/C (second compound 0.316 µM, first compound 0.00999 µM) was 100%. For the same compound, the viability, T/C [5] was 111%, the viability, T/C (second compound 0.316 µM, first compound 0.0999 µM) was 100% and the viability, T/C [6] was 95.8%. It also gave a viability, T/C (second compound 1 µM, first compound 0.000999 µM) of 101%, a viability, T/C (second compound 1 µM, first compound 0.00316 µM) of 95.2% and a viability, T/C (second compound 1 µM, first compound 0.00999 µM) of 96.1%. It also gave a viability, T/C [7] of 99.9%, a viability, T/C (second compound 1 µM, first compound 0.0999 µM) of 97.8% and a viability, T/C [8] of 93.7%. It also gave a viability, T/C (second compound 3.16 µM, first compound 0.000999 µM) of 99.2%, a viability, T/C (second compound 3.16 µM, first compound 0.00316 µM) of 100% and a viability, T/C (second compound 3.16 µM, first compound 0.00999 µM) of 96.2%. It also gave a viability, T/C [9] of 103%, a viability, T/C (second compound 3.16 µM, first compound 0.0999 µM) of 110% and a viability, T/C [10] of 82.1%. It also gave a viability, T/C (second compound 10 µM, first compound 0.000999 µM) of 94.3%, a viability, T/C (second compound 10 µM, first compound 0.00316 µM) of 84.8% and a viability, T/C (second compound 10 µM, first compound 0.00999 µM) of 92.2%. It also gave a viability, T/C [11] of 88.3%, a viability, T/C (second compound 10 µM, first compound 0.0999 µM) of 91% and a viability, T/C [12] of 88.6%.
